Experiment: gradient 5% acetonitrile 3 min, to 50% in 2 min, to 85% in 15 min, held 3 min, 100 µL/min
Conditions: column: Zorbax Extend-C18 2.1 x 50 mm; eluents: water / acetonitrile, 0.1% formic acid
How it was run: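 A Zorbax Extend-C18 column (2.1 × 50 mm, 1.8 μm) run at 100 μL/min with water and acetonitrile, both containing 0.1% formic acid, separated mixtures of ~100 pure standards. The HPLC was coupled to a quadrupole time-of-flight mass spectrometer operated in positive and negative ionization mode, with dead and dwell volumes of 40 μL and 900 μL. Each retention time was taken from a computationally picked adduct peak that was then manually inspected.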

Structure (SMILES)	RP-LC retention time [s]
O=C(c1ccc(OCC2CCCN2C(=O)CC2CCCCC2)cc1)N1CCOCC1 (stereo unspecified)	829
COCc1cc(=O)n(CC(=O)Nc2cc(F)ccc2C)c(N)n1	627
CSc1ccc(NC(=O)N2CCN(C3=CC4=NCC(C)N4C=N3)CC2)cc1 (stereo unspecified)	638
CCOc1ccc(C(=O)N2CCN(c3ccc(-c4nc(C)cs4)cn3)CC2)cc1	884
CCc1ccc(-c2cc3c(=O)n(CC(=O)NCC4CCCN4CC)ncn3n2)cc1 (stereo unspecified)	689
COCCN1C(=O)CCc2cc(NS(=O)(=O)c3ccccc3)ccc21	716
CCCS(=O)(=O)c1nc2ccc(NS(=O)(=O)c3cc(F)ccc3F)cc2s1	918
NS(=O)(=O)c1cccnc1Nc1cccc(C(F)(F)F)c1	932
CCC(C)C(NC(=O)c1ccccc1)C(=O)Nc1nc2ccccc2[nH]1 (stereo unspecified)	718
CCN(Cc1ccccc1)C(=O)Cn1cnc2onc(C)c2c1=O	802
CC1=C(C(=O)O)N2C(=O)C(NC(=O)[C@H](N)c3ccccc3)[C@H]2SC1 (stereo partly specified)	627
O=C(Cc1ccc(NS(=O)(=O)c2ccc3c(c2)OCCO3)cc1)NC1CC1	678
OC(CN1CCN(c2ccccn2)CC1)c1ccc(Cl)cc1 (stereo unspecified)	563
CCN(CC)c1ccc(NC(=O)C2CCCN(C(=O)c3cc(C)cc(C)c3)C2)c(C)c1 (stereo unspecified)	659
CCCNC(=O)c1cc(C)nc2c(C)cc(C)cc12	650
Cc1cc(S(=O)(=O)N2CCC(n3cnnc3C)CC2)ccc1F	702
COC(=O)c1c(C)[nH]c(C(=O)N2CCC(CC(=O)NCc3ccccc3)CC2)c1C	716
COc1cc(CNC(=O)c2ccc3c(c2)NC(=O)C2CCCCN32)cc(OC)c1OC (stereo unspecified)	726
Cc1ccccc1S(=O)(=O)N1CCC(c2noc(-c3cccnc3)n2)C1 (stereo unspecified)	908
CCN1c2ccc(C)cc2C(=O)NC12CCN(C(=O)c1cc(C)cc(C)c1)CC2	912

Structure (SMILES)	RP-LC retention time [s]
COCCCNC(=O)C1CCN(c2ccc(Sc3cccc(F)c3)nn2)CC1	675
Cc1c(-c2ccnc(N3CCCCC3)n2)cnc2nc(-c3ccccc3)nn12	1180
O=C(CN1CCN(C(=O)Nc2ccccc2)CC1=O)N1CCN(c2ccccc2)CC1	696
CCOc1cccc(C2CC(c3ccc4c(c3)OCO4)=NC3(CCN(C(C)C)CC3)N2)c1O (stereo unspecified)	600
Cn1c(=O)c2c(ncn2CC(=O)N2CCCn3nc(-c4ccc(C(F)(F)F)cc4)cc3C2)n(C)c1=O	763
CC(C)CC(=O)Nc1ccc2c(c1)N(C(=O)c1ccco1)CCC2	802
CCn1c(=O)c(N2CCC(NC(=O)Nc3cccc(Br)c3)CC2)nc2ccccc21	1040
CCn1nccc1C(=O)N1CCC[C@H]1c1nc(-c2ccccc2)n[nH]1	627
CCn1cnc(S(=O)(=O)N2CCC(C(=O)Nc3ccc(C)c(Cl)c3)CC2)c1	822
CCC(=O)N1CCN(Cc2nc3cc(NC(=O)C(C)C)ccc3n2C)CC1	584
CCOC(=O)N1CCN(C(=O)CCNc2c(-c3cccc(F)c3)nc3cnccn23)CC1	689
Cc1cc(C(=O)NC2CC2)no1	628
CCOC(=O)c1ccccc1NC(=O)CSc1nnc(NC(=O)C(C)(C)C)s1	929
Nc1cc(C2CCN(S(=O)(=O)c3cccc(C(F)(F)F)c3)CC2)no1	794
Cc1ccc(F)c(NS(=O)(=O)c2cc(-c3nc(C(C)(C)C)cs3)cs2)c1	1260
CCOC(=O)c1cc(S(=O)(=O)N2CCCC2C(=O)Nc2ccc(C)cc2Br)cn1C (stereo unspecified)	1060
CS(=O)(=O)N1CCC(CNC(=O)C(=O)Nc2ccon2)CC1	609
Cc1cccc(NS(=O)(=O)c2cc(-c3[nH]ncc3C(=O)N3CCCC3)oc2C)c1C	725
Cn1nc(C(=O)N2CCC3(CC2)N=C(c2ccccc2)NO3)c2ccccc21	809
CC1CCN(S(=O)(=O)c2nn(C)cc2C(=O)NCc2ccc3c(c2)OCO3)CC1	832

Now from value to compound:

RP-LC retention time [s]	Structure (SMILES)
1050	Cc1cc(NC(=O)C2CCCN(c3nc4ccsc4c(=O)n3Cc3ccc(F)cc3)C2)ccc1F (stereo unspecified)
807	CCN1C(=O)Cc2cc(C(=O)NCc3ccc(Br)cc3)ccc21
639	Cc1cc(C)c2c(N3CCOCC3)nc(C(=O)NCc3cccc(F)c3)nc2n1
899	Cc1sc(NC(=O)c2ccccc2F)nc1-c1ccc2c(c1)NC(=O)C(C)O2 (stereo unspecified)
788	CCN1c2ccc(C)cc2C(=O)NC12CCN(C(=O)c1ccc(C(F)(F)F)cc1)CC2
617	Cc1cc(OCC(=O)NCCn2nc(-c3cccnc3)ccc2=O)ccc1Cl
856	COc1cc(NS(=O)(=O)c2ccc(-c3c(C)noc3C)cc2)cc(OC)c1OC
954	COCCN1C(=O)c2ccccc2C(C(=O)NCC2COc3ccccc3O2)C1c1ccc(F)cc1 (stereo unspecified)
887	CCc1ccc(NC(=O)Cc2c(C)n(C)c3nc(-c4ccccc4)nn3c2=O)cc1
710	Cc1ccc(-c2cn3ccccc3n2)cc1NS(=O)(=O)c1ccc(Br)cc1
885	COc1ccc(-c2cc3nn(CC(=O)Nc4cc(F)ccc4C)c(=O)n3c(C)n2)cc1
661	CCOc1ccc(S(=O)(=O)Nc2ccc(-c3cn4ccccc4n3)cc2)cc1
976	Cn1cnc2c(C(=O)Nc3ccc(F)c(Cl)c3)nn(-c3ccccc3)c2c1=O
880	Cc1ccc(CC(=O)Nc2ccc(-c3nc(Cn4cccn4)c(C)o3)cc2)cc1
755	O=C1Nc2ccccc2C1(c1ccc(O)cc1)c1ccc(O)cc1
1180	Cc1ccc(-c2coc(-c3ccc(NC(=O)NCc4ccc(F)cc4)cc3)n2)c(C)c1
920	COc1ccc(-c2ccnc3nc(Cc4ccc(F)cc4)nn23)cc1
935	O=C(Nc1ccc(F)cc1)c1ccc(Br)s1
731	Cc1nc(-c2noc(-c3ccncc3)n2)cn1CC(=O)Nc1ccc(Cl)cc1
879	CC(=O)NCc1ccc(-c2noc(-c3cc(F)ccc3Cl)n2)s1
647	NC(=O)c1ccc(-c2nc(-c3ccc4c(c3)OCO4)c(-c3ccccn3)[nH]2)cc1
775	O=c1c(Nc2ccc(F)c(F)c2)nc2ccncc2n1Cc1ccccc1
1110	COc1ccc(NC(=O)c2cc(C)n3nc(-c4ccco4)cc3n2)cc1Cl
674	Cc1nn(C)c(C)c1CCNC(=O)Nc1ccc(Br)cc1
661	COc1cc(-c2nc3ccc(C)cn3c2Nc2ccccc2C)ccc1O
764	CCc1noc(NC(C)=O)c1-c1ccc(OC)c(S(=O)(=O)Nc2ccccc2)c1

Source: the METLIN SMRT retention time set (Domingo-Almenara et al. 2019)
